Laboratory results as given in article PMC7129073 (Clinical Microbiology and Infection, 2015).
Values after ≈ are worked out from the molar mass of the structure shown. “Also recorded” adds a separate entry of the source. Marks after values point to notes of the source that are not given here.

How the values were obtained:
S. aureus (MS) = assay: MIC, NCCLS methods; type: cell-based; settings: Staphylococcus aureus
S. aureus (MR) = assay: MIC, NCCLS methods; type: cell-based; settings: Staphylococcus aureus
S. pneumoniae = assay: MIC, NCCLS methods; type: cell-based; settings: Streptococcus pneumoniae
S. progenies = assay: MIC, NCCLS methods; type: cell-based; settings: Streptococcus pyogenes
Streptococcus spp = assay: MIC, NCCLS methods; type: cell-based
E. faecalis = assay: MIC, NCCLS methods; type: cell-based; settings: Enterococcus faecalis
E. faecium = assay: MIC, NCCLS methods; type: cell-based; settings: Enterococcus faecium
A. haemolyticum = assay: MIC, NCCLS methods; type: cell-based; settings: N=9
H. influenzae = assay: MIC, NCCLS methods; type: cell-based; settings: Haemophilus influenzae
H. parainfluenzae = assay: MIC, NCCLS methods; type: cell-based; settings: Haemophilus parainfluenzae
M. catarrhalis = assay: MIC, NCCLS methods; type: cell-based; settings: Moraxella catarrhalis
B. pertussis = assay: MIC, NCCLS methods; type: cell-based; settings: N=10
N meningitidis = assay: MIC, NCCLS methods; type: cell-based
[1] = system: methicillin susceptible Staphylococcus aureus; assay: NCCLS agar dilution MIC; type: cell-based; settings: Staphylococcus aureus
[2] = system: methicillin resistant Staphylococcus aureus; assay: NCCLS agar dilution MIC; type: cell-based; settings: Staphylococcus aureus
[3] = system: Citrobacter freundii (ceftazidime R); assay: NCCLS agar dilution MIC; type: cell-based; settings: n=6
[4] = system: Morganella morganii (ceftazidime R); assay: NCCLS agar dilution MIC; type: cell-based; design: unit not given beside the values; settings: n=2
[5] = system: E. coli (TEM 10 transformant); assay: NCCLS agar dilution MIC; type: cell-based; settings: Escherichia coli
[6] = system: E. coli (OXA 5 transformant); assay: NCCLS agar dilution MIC; type: cell-based; settings: Escherichia coli
[7] = system: P. aeruginosa strains from CF sputa; assay: O-serotyping; type: cell-based, Pseudomonas aeruginosa; settings: exposure to 1/2–1/16 MIC (ceftazidime) or 1/2–1/8 MIC (ciprofloxacin)
Escherichia coli = assay: Vitek 2 susceptibility, urine isolates of children; type: cell-based
[8] = system: Pseudomonas putida clinical isolates; assay: Agar dilution MIC; type: cell-based
P. aeruginosa = type: cell-based, Pseudomonas aeruginosa
Acinetobacter = assay: Disk diffusion; type: cell-based; settings: 37 isolates selected as resistant to beta-lactams
[9] = system: inducible Enterobacteriaceae; assay: SMART 2003, intraabdominal isolates; type: cell-based
Enterobacteriaceae = assay: SMART 2003 Europe, microdilution; type: cell-based; settings: 1948 isolates
E. coli [10] = assay: SMART 2003 Europe, microdilution; type: cell-based, Escherichia coli; settings: 1106 isolates
Klebsiella = assay: SMART 2003 Europe, microdilution; type: cell-based, Klebsiella spp.; settings: 341 isolates
Escherichia coli (ECO) = assay: Broth microdilution; type: cell-based; settings: 2001
E. coli [11] = assay: E-test susceptibility; type: cell-based, Escherichia coli
K. pneumoniae = assay: E-test susceptibility; type: cell-based, Klebsiella pneumoniae
K. oxytoca = assay: E-test susceptibility; type: cell-based, Klebsiella oxytoca
Enterobacter spp = assay: E-test susceptibility; type: cell-based
[12] = system: E. coli (TEM 9 transformant); assay: NCCLS agar dilution MIC; type: cell-based; settings: Escherichia coli, n=1 per table line (three lines)
Pseudomonas aeruginosa = assay: MIC, strains from cystic fibrosis patients; settings: by MIC

SMILES: CC[C@H]1OC(=O)[C@H](C)[C@@H](O[C@H]2C[C@@](C)(OC)[C@@H](O)[C@H](C)O2)[C@H](C)[C@@H](O[C@@H]2O[C@H](C)C[C@H](N(C)C)[C@H]2O)[C@](C)(O)C[C@@H](C)C(=O)[C@H](C)[C@@H](O)[C@]1(C)O [Erythromycin A, erythromycin A]
- MIC50 (S. aureus (MS)): 0.25 µg/mL (≈ 0.341 µM)
- MIC90 (S. aureus (MS)): > 64 µg/mL
- MIC50 (S. aureus (MR)): > 64 µg/mL
- MIC90 (S. aureus (MR)): > 64 µg/mL
- MIC50 (S. pneumoniae): > 32 µg/mL
- MIC90 (S. pneumoniae): > 32 µg/mL
- MIC50 (S. progenies): > 64 µg/mL
- MIC90 (S. progenies): > 64 µg/mL
- MIC50 (Streptococcus spp): 0.06 µg/mL (≈ 0.0818 µM)
- MIC90 (Streptococcus spp): 0.12 µg/mL (≈ 0.164 µM)
- MIC50 (E. faecalis): > 64 µg/mL
- MIC90 (E. faecalis): > 64 µg/mL
- MIC50 (E. faecium): > 64 µg/mL
- MIC90 (E. faecium): > 64 µg/mL
- MIC range (A. haemolyticum): ≤0.015-0.03 ^* mg/L
- MIC50 (H. influenzae): 4 µg/mL (≈ 5.45 µM)
- MIC90 (H. influenzae): 8 µg/mL (≈ 10.9 µM)
- MIC50 (H. parainfluenzae): 2 µg/mL (≈ 2.73 µM)
- MIC90 (H. parainfluenzae): 8 µg/mL (≈ 10.9 µM)
- MIC50 (M. catarrhalis): 0.12 µg/mL (≈ 0.164 µM)
- MIC90 (M. catarrhalis): 0.12 µg/mL (≈ 0.164 µM)
- MIC range (B. pertussis): 0.06 to 0.12 mg/L
- MIC50 (N meningitidis): 0.12 µg/mL (≈ 0.164 µM)
- MIC90 (N meningitidis): 0.25 µg/mL (≈ 0.341 µM)
- MIC50 [1]: 0.25 µg/mL (≈ 0.341 µM)
- MIC90 [1]: > 64 µg/mL
- MIC50 [2]: > 64 µg/mL
- MIC90 [2]: > 64 µg/mL

SMILES: C[C@H]1[C@H](NC(=O)/C(=N\OC(C)(C)C(=O)O)c2csc(N)n2)C(=O)N1S(=O)(=O)O [aztreonam]
- MIC range [3]: 4 to 64 mg/L
- MIC (two isolates) [4]: 2/8
- MIC [5]: 32 µg/mL (≈ 73.5 µM)
- MIC [6]: 16 µg/mL (≈ 36.7 µM)

SMILES: CC(C)(O/N=C(\C(=O)N[C@@H]1C(=O)N2C(C(=O)[O-])=C(C[n+]3ccccc3)CS[C@H]12)c1csc(N)n1)C(=O)O [ceftazidime]
- change of agglutination type of nine monoagglutinable strains [7]: seven strains have become auto-agglutinable; also recorded: two strains have become polyagglutinable
- susceptibility rate (Escherichia coli; paediatric surgical unit (PSU)): 39%
- susceptibility rate (Escherichia coli; paediatric units (PU)): 95%
- MIC [8]: > 128 µg/mL
- resistant (P. aeruginosa): 32%
- resistant isolates (Acinetobacter): 56.8%
- % susceptible ([9]; A/P (N = 200)): 59%
- % susceptible ([9]; EU (N = 354)): 75%
- % susceptible ([9]; LA (N=113)): 69%
- % susceptible ([9]; NA (N = 163)): 71%
- per cent susceptible (Enterobacteriaceae): 92%
- per cent susceptible (E. coli [10]): 96%
- per cent susceptible (Klebsiella): 94%
- susceptible (Escherichia coli (ECO); NAL-resistant isolates): 93.3%
- susceptible (Escherichia coli (ECO); NAL-susceptible isolates): 99.0%
- Susceptible isolates (E. coli [11]; ICU, SRGA breakpoints, tigecycline tentative S ≤2 μg/ml): 98%
- Susceptible isolates (E. coli [11]; non ICU): 99%
- Susceptible isolates (K. pneumoniae; ICU): 98%
- Susceptible isolates (K. pneumoniae; non ICU): 100%
- Susceptible isolates (K. oxytoca; ICU): 100/100%
- Susceptible isolates (K. oxytoca; non ICU): 100/100%
- Susceptible isolates (Enterobacter spp; ICU): 75%
- Susceptible isolates (Enterobacter spp; non ICU): 89%
- MIC (two isolates) [4]: 16/64
- MIC [12]: > 128 µg/mL
- MIC [5]: > 128 µg/mL
- MIC [6]: 64 µg/mL (≈ 117 µM)
- Susceptible isolates (Pseudomonas aeruginosa): 84%
